Consider two compounds from US5204328A, “Peptides having atrial natriuretic factor activity” (Merck & Co., Inc., priority 1991, dated 1993).

The experiment concerns Rabbit Renal Artery. The experiment can be described thus: Vasorelaxant relative potency, rabbit renal artery. Type of experiment: cell-based.

Where a SMILES comes first, the peptide text is derived from it. Bridges are numbered along the chain shown (N, C = ends).

Regarding `CC[C@H](C)[C@@H]1NC(=O)[C@H](CCCNC(=N)N)NC(=O)[C@H](CC(=O)O)NC(=O)[C@H]([C@@H](C)CC)NC(=O)[C@H](CCCNC(=N)N)NC(=O)CNC(=O)CNC(=O)[C@H](Cc2ccccc2)NC(=O)[C@@H](N)CSSC[C@@H](C(=O)N[C@@H](CC(N)=O)C(=O)N[C@@H](CO)C(=O)N2CCC[C@H]2C(=O)N[C@@H](CCCNC(=N)N)C(N)=O)NC(=O)CNC(=O)[C@H](CC(C)C)NC(=O)CNC(=O)[C@H](CO)NC(=O)[C@H](CCC(N)=O)NC(=O)[C@H](C)NC(=O)CNC1=O` [Structure 23, PROLINE-26 ANF (7-27) amide] (H-CFGGRIDRIGAQSGLGCNSPR-NH2; disulfide 1-17), the “Vasorelaxant Relative Potency Rabbit Renal Artery” value (Table 1, (3-28) analogs, relative to sequence I = 1) was 3.3.
For `CC[C@H](C)[C@@H]1NC(=O)[C@H](CCCNC(=N)N)NC(=O)[C@H](CC(=O)O)NC(=O)[C@H]([C@@H](C)CC)NC(=O)[C@H](CCCNC(=N)N)NC(=O)CNC(=O)CNC(=O)[C@H](Cc2ccccc2)NC(=O)[C@@H](N)CSSC[C@@H](C(=O)N[C@@H](CC(N)=O)C(=O)N[C@@H](CO)C(=O)N2CCC[C@H]2C(=O)N[C@@H](CCCNC(=N)N)C(N)=O)NC(=O)CNC(=O)[C@H](CC(C)C)NC(=O)CNC(=O)[C@H](CO)NC(=O)[C@H](CCC(N)=O)NC(=O)[C@H](C)NC(=O)CNC1=O` [Structure 23] (H-CFGGRIDRIGAQSGLGCNSPR-NH2; disulfide 1-17), the “Vasorelaxant Relative Potency Rabbit Renal Artery” value (Table 2, (7-27)-NH2 analogs, relative to I (7-27)-NH2 = 1) was 3.86.
